The supplement of paper PMC10307832

Key:
Experiment in all cases: relative viability (nuclei count vs DMSO), 5 days (fraction); higher = more cells survive
TGX 221 + Phenformin = compound: CC1=CN2C(=O)C=C(N=C2C(=C1)C(C)NC3=CC=CC=C3)N4CCOCC4 [TGX 221] + N=C(N)NC(=N)NCCc1ccccc1 [Phenformin] (partner 250 µM)
Outline: (§1)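 Lung cancer cell lines were pin-tool dosed in 1536-well plates on the day after seeding, with either a lone drug or a fixed anchor-drug dose plus five library-drug doses (not always all listed) in √10 steps. Nuclei were counted on 4× images after 5 days. Relative viability is the ratio of treated-well to vehicle-well nuclei counts, with each value a median of duplicate plates.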

[1] = compound: O=C(CCCCCCNC(=O)c1cnc(N(c2ccccc2)c2ccccc2)nc1)NO [Ricolinostat] + Cc1cc(Nc2cc(N3CCN(C)CC3)nc(Sc3ccc(NC(=O)C4CC4)cc3)n2)n[nH]1 [Tozasertib] (partner 0.1 µM)
Outline: as §1

TGX 221 + Crizotinib = compound: CC1=CN2C(=O)C=C(N=C2C(=C1)C(C)NC3=CC=CC=C3)N4CCOCC4 [TGX 221] + C[C@@H](Oc1cc(-c2cnn(C3CCNCC3)c2)cnc1N)c1c(Cl)ccc(F)c1Cl [Crizotinib] (partner 1 µM)
Outline: as §1

[2] = compound: C1=CC=C(C(=C1)C2=CC=C(C=C2)C3=CSC4=C3C(=C(C(=O)N4)C#N)O)O + N=C(N)NC(=N)NCCc1ccccc1 [Phenformin] (partner 250 µM)
Outline: as §1

Row | Cell Line | relative viability (TGX 221 + Phenformin; first compound 0.08 µM) | relative viability (TGX 221 + Phenformin; first compound 0.253 µM) | relative viability (TGX 221 + Phenformin; first compound 0.8 µM) | relative viability (TGX 221 + Phenformin; first compound 2.53 µM) | relative viability (TGX 221 + Phenformin; first compound 8 µM) | relative viability ([1]; first compound 0.08 µM) | relative viability ([1]; first compound 0.253 µM) | relative viability ([1]; first compound 0.8 µM) | relative viability ([1]; first compound 2.53 µM) | relative viability (TGX 221 + Crizotinib; first compound 0.08 µM) | relative viability (TGX 221 + Crizotinib; first compound 0.253 µM) | relative viability (TGX 221 + Crizotinib; first compound 0.8 µM) | relative viability (TGX 221 + Crizotinib; first compound 2.53 µM) | relative viability (TGX 221 + Crizotinib; first compound 8 µM) | relative viability ([2]; first compound 0.08 µM) | relative viability ([2]; first compound 0.253 µM) | relative viability ([2]; first compound 0.8 µM) | relative viability ([2]; first compound 2.53 µM) | relative viability ([2]; first compound 8 µM)
1 | CAL-12T | 0.629 | 0.55 | 0.62 | 0.56 | 0.661 | 0.326 | 0.261 | 0.284 | 0.196 | 0.53 | 0.673 | 0.72 | 0.689 | 0.595 | 0.566 | 0.668 | 0.593 | 0.575 | 0.547
2 | NCI-H23 | 0.814 | 0.699 | 0.811 | 0.836 | 0.773 | 0.399 | 0.321 | 0.393 | 0.254 | 0.58 | 0.391 | 0.518 | 0.465 | 0.454 | 0.782 | 0.85 | 0.872 | 0.754 | 0.583
3 | NCI-H2228 | 0.377 | 0.317 | 0.256 | 0.312 | 0.258 | 0.37 | 0.235 | 0.237 | 0.141 | 0.399 | 0.288 | 0.354 | 0.327 | 0.384 | 0.316 | 0.318 | 0.322 | 0.307 | 0.225
4 | NCI-H661 | 0.308 | 0.279 | 0.288 | 0.288 | 0.287 | 0.354 | 0.364 | 0.288 | 0.281 |  | 1.12 | 0.973 | 0.959 | 1.07 | 0.31 | 0.298 | 0.257 | 0.254 | 0.298
